Biological target: T1, His-TEV-AtPP01 ΔcTP L479M (SEQ ID NO: 371) (Arabidopsis thaliana, UniProt P55826, L479M)
T1 construct: with cTPs removed; made in house; host or cells: E. coli BL21 (DE3), His GraviTrap, partially purified
T1 sequence (P55826 with tags, fused parts or gaps L479M): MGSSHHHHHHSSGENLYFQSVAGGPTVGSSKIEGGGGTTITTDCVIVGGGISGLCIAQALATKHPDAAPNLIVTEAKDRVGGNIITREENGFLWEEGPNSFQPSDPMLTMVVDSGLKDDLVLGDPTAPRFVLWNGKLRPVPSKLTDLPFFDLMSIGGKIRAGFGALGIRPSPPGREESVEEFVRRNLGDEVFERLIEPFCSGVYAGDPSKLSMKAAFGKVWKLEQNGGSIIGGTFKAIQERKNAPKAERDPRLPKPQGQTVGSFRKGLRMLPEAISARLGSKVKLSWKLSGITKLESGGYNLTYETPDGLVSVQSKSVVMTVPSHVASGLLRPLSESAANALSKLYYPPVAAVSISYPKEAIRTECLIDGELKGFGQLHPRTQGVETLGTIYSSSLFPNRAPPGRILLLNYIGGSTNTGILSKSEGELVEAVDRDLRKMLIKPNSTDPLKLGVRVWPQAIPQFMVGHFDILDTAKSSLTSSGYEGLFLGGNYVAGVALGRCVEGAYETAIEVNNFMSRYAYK
Assay: activity rate of PPO variant in in vitro assay
Format: biochemical
Conditions: role: substrate; 1 uM protoporphyrinogen IX; no inhibitor
Source text: A pET24 plasmid containing a DNA sequence encoding variants of AtPPO1 derived from Arabidopsis thaliana with cTPs removed and both a 6×His tag and TEV protease cleavage tag added at the N-terminus, codon-optimised for expression in E. coli, and under control of a T7 promoter, was synthesised by Twist Bioscience. The following variants were synthesised: WT AtPPO1 (SEQ ID NO: 370), AtPPO1 L479M (SEQ ID NO: 371), AtPPO1 L479N (SEQ ID NO: 372), AtPPO1 S305L Y426V (SEQ ID NO: 374) and AtPPO1 S305L Y426V L479M (SEQ ID NO: 373). This plasmid was expressed in E. coli BL21 (DE3) with 50 μg/mL kanamycin selection. 10 mL of overnight cultures grown at 37° C. were used to inoculate 1 L AIM (AIM-Terrific Broth Base including Trace elements, Formedium) in 2 L shake flasks. Cultures were grown at 37° C., 200 rpm for 3 hours and then overnight at 26° C. Cells were harvested centrifugation. 5-15 g of cell pellet was lysed in and resuspended in ratio of 1:1.5 in lysis buffer (20 mM Tris pH8, 500 mM sodium chloride, 10% glycerol, 1× complete Protease EDTA-free Inhibitor Tablet (Roche), 10 mM imidazole). The resuspension was sonicated at 75% using 10 cycles of 30 seconds, 40 seconds off. After sonication Triton X-100 was added to the lysates at a final concentration of 0.5%. The lysates were centrifuged at 20,000 rpm for 25 min at 4° C. Cleared lysates were loaded on His GraviTrap (Cytiva) columns, washed with 20 mL of lysis buffer and eluted in elution buffer (20 mM Tris pH8, 500 mM sodium chloride, 10% glycerol, 200 mM imidazole, 0.03% (v/v) Triton X-100). The eluate was desalted on a PD10 column and 2.5-3.2 mL was collected. Protein concentration was measured and calculated using the absorbance at 280 nm. Extracts were diluted 1 in 4 and 10 uL was analysed by SDS PAGE.
Partially purified Protoporphyrinogen Oxidase enzymes were assayed for activity using fluorescence adapted from the method of Shepherd & Dailey (Anal Biochem. 2005 344(1) 115-121). The assay was performed in black 384 well plates with a clear bottom and the total volume of the reaction mixture was 91 ul. The final assay mixture contained 100 mM K2HPO4 pH7.2, 1 mM Na2EDTA, 5 mM DTT, 20% glycerol (v/v), 0.05% Tween 20 (v/v), 1.1% DMSO (v/v), 1 uM protoporphyrinogen IX and 1.5 nM enzyme. Compounds were dissolved in DMSO at 1 mM and a 4-fold serial dilution carried out to give 8 rates. 1 ul was added to the assay mixture. This gave final compound concentrations of 11, 2.7, 0.69, 0.17, 0.04, 0.01, 0.002, 0.0007 uM. Enzyme and inhibitor were preincubated for 5 minutes prior to starting the reaction with the addition of the substrate. […] IC50s were calculated using GraphPad Prism 7.05 nonlinear regression (Table 6). Each compound was tested in duplicate.

SMILES: C=Cc1c2[nH]c(c1C)Cc1[nH]c(c(CCC(=O)O)c1C)Cc1[nH]c(c(C)c1CCC(=O)O)Cc1[nH]c(c(C)c1C=C)C2 [protoporphyrinogen IX]
- Rate: 9.9 rfu second^−1 pmole^−1
